According to patent US20240316050A1 (OXFORD UNIVERSITY INNOVATION LIMITED, priority 2020, published 2024):
Entries after “also recorded” stand apart in the source; their conditions may differ. Counter-ions that a name gives are not always drawn.

How the values were obtained:
[1] = tested on: uterine arteries; experiment: Wire myography of isolated uterine arteries with inhibitors in the bath; parameters: species or system mouse
Text: All drugs used were purchased from Sigma Chemical Company.

[2] = molecular target: T1, endothelial nitric oxide synthase (eNOS) (Mus musculus, UniProt P70313); experiment: eNOS activity (14C arginine to 14C citrulline) in sEnd.1 cells; format: cell-based; settings: 5MTHF 10 μm, 16 h (FIG. 34)
T1 construct: Conversion of 14C arginine to 14C citrulline was used as a measure of endothelial nitric oxide synthase activity (eNOS); endogenous in cells; host or cells: sEnd.1 murine endothelial cell line

[3] = Plasma and uterine artery biopterins by HPLC in treated pregnant mice; settings: for systemic oxidation of BH4 to BH2: Gch1 deficient and control mice, oral supplementation
Description: After centrifugation at 13,200 rpm for 10 min at 4° C., supernatant was removed and ice-cold acid precipitation buffer (1 M phosphoric acid, 2 M trichloroacetic acid, 1 mM dithioerythritol) was added. Following centrifugation at 13,200 rpm for 10 min at 4° C., the supernatant was removed and injected onto the HPLC system.

[4] = tested on: HUVECs; experiment: Intracellular BH4 and biopterins by HPLC in HUVECs; format: cell-based, human
Text: (§1) Umbilical cords were collected at birth and human umbilical vein endothelial cells (HUVECs) were isolated and stored in liquid nitrogen according to standard operating procedures within a research tissue bank (Oxford Cardiovascular Tissue Bioresource; ethical approval 09/[…]/68, 07/[…]/148 and 11/SC/0230). For the purpose of the current study, HUVECs were identified from normotensive pregnancies and pregnancies complicated by preeclampsia, matched for maternal age and gestation. HUVECs and human uterine microvascular endothelial cells (HutMECs; Cat C-12295, Promocell) were cultured in EBM2 (endothelial basal medium) with bullet kit as recommended (Cat CC-3162, Lonza). All cell cultures were maintained in humidified 5% CO2 at 37° C. Primary HUVEC and HutMEC cells, obtained between passages 1-3 were and passages 4-6, respectively, were used for all experiments. sEnd.1 endothelial cells were grown in Dulbecco's modified Eagle's medium (Invitrogen) supplemented with glutamine (2 mmol/liter), penicillin (100 units/ml), and streptomycin (0.1 mg/ml).

[5] = tested on: HUVECs; experiment: Matrigel endothelial tube formation, HUVECs from NT and PE pregnancies; format: cell-based, human; settings: sepiapterin 1 μM
Text: Umbilical cords were collected at birth and human umbilical vein endothelial cells (HUVECs) were isolated and stored in liquid nitrogen according to standard operating procedures within a research tissue bank (Oxford Cardiovascular Tissue Bioresource; ethical approval 09/H0606/68, 07/H0606/148 and 11/SC/0230). For the purpose of the current study, HUVECs were identified from normotensive pregnancies and pregnancies complicated by preeclampsia, matched for maternal age and gestation. HUVECs and human uterine microvascular endothelial cells (HutMECs; Cat C-12295, Promocell) were cultured in EBM2 (endothelial basal medium) with bullet kit as recommended (Cat CC-3162, Lonza). All cell cultures were maintained in humidified 5% CO2 at 37° C. […]
To assess tube formation ability of endothelial cells, a 96-well plate was evenly coated with 50 μl of growth factor-reduced Matrigel (BD Biosciences, UK). […] Images were saved as TIFF files, and tube formation analysed using AngioSys 1.0 (TCS Cell Works, UK). […] The total length of lines was quantified in pixels (then converted to micrometers) and total number of branch points was recorded.

[6] = molecular target: T2, endothelial nitric oxide synthase (eNOS) (Homo sapiens, UniProt P29474); experiment: NO synthesis by eNOS (14C arginine to citrulline conversion) in HUVECs; format: cell-based; settings: HUVECs from NT and PE pregnancies; sepiapterin 1 μM
T2 construct: endogenous in cells; host or cells: primary HUVECs (passages 1-3) from normotensive and pre-eclamptic pregnancies
Description: Umbilical cords were collected at birth and human umbilical vein endothelial cells (HUVECs) were isolated and stored in liquid nitrogen according to standard operating procedures within a research tissue bank (Oxford Cardiovascular Tissue Bioresource; ethical approval 09/H0606/68, 07/H0606/148 and 11/SC/0230). For the purpose of the current study, HUVECs were identified from normotensive pregnancies and pregnancies complicated by preeclampsia, matched for maternal age and gestation. […] All cell cultures were maintained in humidified 5% CO2 at 37° C.
NO synthesis by eNOS was assessed by conversion of ^14C L-arginine to citrulline, in the presence and absence of N-monomethyl-L-arginine (1 mM, Sigma), as described previously^9. Briefly, HUVES were incubated for 4 hours at 37° C. in 200 μl Krebs-HEPES buffer containing ^14C L-arginine (2 μl of 50 μCi/mL). Samples were run on a SCX 300 cation exchange HPLC column (Sigma) with online scintillation detection. Background signals were corrected from samples with ^14C L-arginine alone without cells.

[7] = tested on: human uterine microvascular endothelial cells (HutMECs); experiment: Matrigel endothelial tube formation, HutMECs with GCH1 siRNA; format: cell-based; settings: HutMECs treated with GCH1 siRNA; sepiapterin 1 μM
Description: (§2) To assess tube formation ability of endothelial cells, a 96-well plate was evenly coated with 50 μl of growth factor-reduced Matrigel (BD Biosciences, UK). Endothelial cells were plated at a density of 1×10^4 cells per well. The plate was incubated at 37° C. for 16 hours before photomicroscopy. Each sample was replicated in triplicate and the image of each well was taken at ×4 magnification using a Nikon Eclipse TE2000-U microscope (Nikon Ltd, London, UK). Images obtained from Matrigel assay were adjusted for mean brightness using acquisition software to control the bright field illumination of the microscope (Simple PCI version 6.6.0.0; Hamamatsu Corporation, Sewickley, PA). Images were saved as TIFF files, and tube formation analysed using AngioSys 1.0 (TCS Cell Works, UK). Image threshold was adjusted based on the intensity values of the monochrome image and each image then skeletonized to reduce to one pixel wide. […] The total length of lines was quantified in pixels (then converted to micrometers) and total number of branch points was recorded.
(§3) GCH1-specific, ON-TARGETplus SMARTpool siRNA was purchased from Dharmacon Thermo Scientific. […] The cells were cultured for 72 h, and gene silencing was detected by analysis of GTPCH protein expression by Western blotting using GTPCH-specific antibodies (a gift from S.Gross, Cornell University New York), in cells using standard protocols.

[8] = tested on: sEnd.1 murine endothelial cells; experiment: Intracellular BH4 and biopterins by HPLC in sEnd.1 cells; format: cell-based, mouse
Text: as §1, with “mg/ml). GCH1-specific, ON-TARGETplus SMARTpool siRNA was purchased from Dharmacon Thermo Scientific. […] The cells were cultured for 72 h, and gene silencing was detected by analysis of GTPCH protein expression by Western blotting using GTPCH-specific antibodies (a gift from S.Gross, Cornell University New York), in cells using standard protocols.” for “mg/ml).”

[9] = tested on: sEND.1 mouse endothelial cell line; experiment: Matrigel endothelial tube formation, sEND.1 cells with Gch1 siRNA; format: cell-based; settings: sEND.1 treated with specific Gch1 siRNA; sepiapterin 1 μM
Description: as §2, §3

[10] = tested on: Gch1^fl/flTie2cre mice; experiment: Systolic blood pressure by tail-cuff plethysmography in pregnant mice; settings: oral 5-MTHF begun at day 10.5 or 16.5
Description: Female Gch1^fl/flTie2cre mice and their Gch1^fl/fl littermates (thereafter referred to as wild-type) were used for all experiments at 10 to 16 weeks.
Systolic blood pressure and heart rate was determined using a computerized tail-cuff system (Visitech, USA) in conscious mice^6. Experiments were performed between the hours of 8 and 12 am. The animal tails were passed through a cylindrical latex tail-cuff and taped down to reduce movement. Twenty readings were taken per mouse of which the first 5 readings were discarded. The remaining 15 readings were used to calculate the mean systolic blood pressure and heart rate in each mouse.

[11] = tested on: sEnd.1 cells; experiment: Superoxide and ROS production by DHE HPLC in sEnd.1 cells; format: cell-based, mouse; settings: folic acid 10 μm, 16 h (FIG. 33)
Description: Measurement of 2-hydroxyethidium formation by HPLC was used to quantify superoxide production, as previously described. Briefly, the cells were washed three times in PBS and incubated in Krebs-Hepes buffer in the presence or absence of I-NAME (100 μm). After 30 min, dihydroethidium (25 μm) was added, and the cells were then incubated for an additional 20 min at 37° C. The cells were then harvested by scraping, centrifuged, and lysed in ice-cold methanol. Hydrochloric acid (100 mm) was added (1:1 v/v) prior to loading into the autosampler for analysis. All of the samples were stored in darkened tubes and protected from light at all times. Separation of ethidium, oxyethidium, and dihydroethidium was performed using a gradient HPLC system (Jasco) with an ODS3 reverse phase column (250 mm, 4.5 mm; Hichrom), and quantified using a fluorescence detector set at 510 nm (excitation) and 595 nm (emission). A linear gradient was applied from Mobile phase A (0.1% TFA (v/v)) to Mobile phase B (0.1% TFA (v/v) in acetonitrile) over 23 min (30% acetonitrile to 50% acetonitrile).

[12] = tested on: women with pre-eclampsia; settings: folic acid supplementation, clinical trials; cited from earlier work
[13] = tested on: people with PKU; settings: most people with PKU; cited from earlier work

For `COC(=O)[C@@H](N)CCCNC(=N)N[N+](=O)[O-]` [L-NAME], the “ACh vasorelaxations in the presence of L-NAME” value ([1]; Gch1^fl/flTie2cre uterine arteries, L-NAME 100 μM) was “did not significantly inhibit”, the “vasoconstriction response to U46619 in the presence of L-NAME” value ([1]; uterine arteries of pregnant Gch1^fl/flTie2cre mice, L-NAME 100 μM) was “unchanged” and the “vasoconstriction response to U46619 in the presence of L-NAME” value ([1]; uterine arteries of pregnant wild-type mice, L-NAME 100 μM) was “increased”. The “activity of endothelial nitric oxide synthase (L-arginine to L-citrulline conversion)” value [2] was “inhibited”.
In the case of `COc1ccc2c(c1)c(CC(=O)O)c(C)n2C(=O)c1ccc(Cl)cc1` [indomethacin], the “endothelium-dependent vasodilation to ACh in the presence of inhibitors” value ([1]; uterine arteries, pregnant or non-pregnant wild-type and Gch1^fl/flTie2cre mice, indomethacin 10 μM, apamin 50 nM, charybdotoxin 100 nM) is reported as “minimal effect”.
In the case of `C[C@H](O)[C@H](O)[C@H]1CNc2nc(N)[nH]c(=O)c2N1` [BH4, tetrahydrobiopterin], the “systemic oxidation of BH4 to BH2” value [3] is reported as “rapidly oxidised”, the “BH4/BH2+B (total biopterins) ratio” value ([3]; pregnant mice, E18.5, oral BH4 200 mg/kg/day) is reported as “reduction” and the “plasma BH4 levels” value ([3]; pregnant mice, E18.5, oral in chow from 3 days before timed matings, BH4 200 mg/kg/day, 5-MTHF 15 mg/kg/day) is reported as “increased”.
For `CN1c2c([nH]c(N)nc2=O)NC[C@@H]1CNc1ccc(C(=O)N[C@@H](CCC(=O)O)C(=O)O)cc1` [Arcofolin], the BH4 levels ([4]; HUVECs from pregnancies with high blood pressure, 5MTHF 10 μm, 16 h at 37° C. (FIG. 36)) was “increases”.
For `C[C@H](O)C(=O)C1=Nc2c(nc(N)[nH]c2=O)NC1` [sepiapterin], the “endothelial cell growth and tubule formation” value [5] was “restored; also recorded: rescued”, the eNOS activity [6] was “normalized; also recorded: significantly increased” and the “endothelial cell growth and tubule formation” value [7] was “rescued”. For the same compound, the BH4 levels ([8]; sEND.1 treated with specific Gch1 siRNA, sepiapterin 1 μM) was “increased”, the BH4 levels ([4]; HUVECs from hypertensive/pre-eclamptic pregnancies, sepiapterin 1 μM) was “normalized” and the “endothelial cell growth and tubule formation” value [9] was “fully restored; also recorded: rescued”.
With `CN1c2c(nc(N)[nH]c2=O)NC[C@@H]1CNc1ccc(C(=O)N[C@@H](CCC(=O)O)C(=O)O)cc1` [5-MTHF, 5-methyltetrahydrofolate] the “time from initiation of treatment to reduction in blood pressure” value [10] was at most 2 days and the “systemic oxidation of BH4 to BH2” value [3] was “prevented”.
For `Nc1nc2ncc(CNc3ccc(C(=O)N[C@@H](CCC(=O)O)C(=O)O)cc3)nc2c(=O)[nH]1` [folic acid], the “generation of reactive oxygen species (ROS)” value [11] is given as “increased”, the “clinical benefit in pre-eclampsia” value [12] is given as “no benefit” and the BH4 levels ([8]; sEnd.1 cells, folic acid 10 μm, 16 h at 37° C., with or without MTX 1 μm (FIG. 28)) is given as “no effect”.
For `C[C@H](O)[C@H](O)[C@H]1CNc2nc(N)[nH]c(=O)c2N1` [sapropterin dihydrochloride], the “clinical benefit in PKU” value [13] is listed as “little or no benefit”.
